The test system of this experiment is SRD5A1 protein expression. Description: Western blot of SRD5A1 protein expression in HaCaT cells. The experiment is classed as cell-based, human. On the procedure:
HaCaT cells (1 × 10^5 cells/well in 6-well plates) were cultured in DMEM with or without compound 4 (0–2.5 µM) for 12 and 24 h. The cells were lysed with RIPA buffer containing 1% protease inhibitor and 1% phosphatase inhibitor on ice for 45 min. Then, the total protein from each sample was determined by bicinchoninic acid (BCA) protein assay kit (Cat No. 23225, Thermo Fisher Scientific, Rockford, IL, USA). The equal amount (40 µg) of protein sample was mixed with loading buffer and heated at 95 °C for 5 min before loaded to 10% sodium dodecyl sulfate–polyacrylamide gels (SDS-PAGE). The proteins were transferred onto PVDF membrane, which was further blocked with 5% BSA in TBST (25 mmol/L Tris–HCl; pH 7.4, 125 mmol/L NaCl, 0.1% Tween 20) at room temperature for 1 h. The primary antibody specific to SRD5A1 (1TFS-AB-PA575919, Thermo Fisher Scientific, Rockford, IL, USA) in dilution 1:1000 was added onto the membrane and incubated overnight at 4 °C. Then the membrane was washed 3 times × 7 min with TBST following with the immersion in the specific secondary antibody conjugated with horseradish peroxidase (HRP) for 1 h at room temperature. The signal of target protein was determined by using chemiluminescence HRP substrate (Thermo Scientific, Rockford, IL, USA) and the intensity of target protein was analyzed by analyst/PC densitometric software (Bio-Rad, Hercules, CA, USA).

Experimental findings from paper PMC9718795, “Caffeic acid N-[3,5-bis(trifluoromethyl)phenyl] amide as a non-steroidal inhibitor for steroid 5α-reductase type 1 using a human keratinocyte cell-based assay and molecular dynamics” (Scientific Reports, 2022) are described below.

With `O=C(C=Cc1ccc(O)c(O)c1)Nc1cc(C(F)(F)F)cc(C(F)(F)F)c1` [Compound 4, 3-(3,4-dihydroxyphenyl)-N-[3,5-bis (trifluoromethyl)phenyl]-2-propenamide], where the note is “2.5 µM, 24 h”, the “Suppression of SRD5A1 protein expression relative to untreated control” value is recorded as above 50%. Moreover, where the note is “1 and 2.5 µM, 24 h”, the “SRD5A1 protein expression relative to control” value was “significant decrease”. Also, the “SRD5A1 protein level relative to control” value (12 h) was “no significant changes”.
